Results on five molecules are retold here after patent US4707468A, “Polypeptide” (Eisai Co., Ltd., priority 1984, dated 1987).

In general, IC50 refers to the concentration at which inhibition is half-maximal. A lower IC50 goes with greater potency in that assay.

Data set [1] has as its system mice. The data set is described as follows: Toxicity (minimum lethal dose) in mice. The data set is classed as in vivo. The conditions noted are these: administered subcutaneously in mice. The source says: The relationship between the toxicity (minimum lethal dose) of the peptide compound obtained in Examples 1 and 2 of the present invention and the effective dose is shown in Table 4.
Effective dose and minimum lethal dose
when administered subcutaneously in mice

Data set [2] has as its system rabbit vas deferens. The data set is described as follows: Opioid activity, rabbit vas deferens method (inhibition of electrically stimulated contraction). The class given is cell-based. Conditions: electric stimulation 0.1 Hz, 1 ms, 90 volt. The protocol:
The opioid activities of the compounds of the invention were examined by the method using rabbit vas deferens according to T. Oka, K. Negishi, M. Suda, T. Matsumiya, T. Inaza and M. Ueki, "Europ. J. Pharmacol.", Vol. 73, 235 (1980). In this test, mature male rabbits were sacrificed by introducing air into an […]. Immediately after death, a laparotomy was conducted and right and left vasa deferens were removed. The semen was pressed out of the ducts into Ringer's solution. A part of each duct was cut ([…] long from an end of the prostrate gland side). The pieces of the deferentaial ducts were suspened by means of a thread in a 6 ml constant-temperature glass cell and stimulated electrioally with an electric stimulation device having platinum electrodes under conditions of 0.1 Hz, 1 ms and 90 volt. A contraction due to the electric stimulation was recorded through a transducer.
The opioid activity was determined on the basis of the inhibition of the contraction due to the electric stimulation.
The results are shown in Table 3 in terms of 50% inhibitation concentration (IC50).
The following compounds obtained in the examples ere tested in the same way as described above.

Regarding `CCNC(=O)[C@@H](CC(C)C)NC(=O)[C@H](CCCNC(=N)N)N(C)C(=O)[C@H](CCCNC(=N)N)NC(=O)[C@H](CC(C)C)NC(=O)[C@H](Cc1ccccc1)NC(=O)CNC(=O)CNC(=O)[C@H](Cc1ccc(O)cc1)NC` [Example 1, CH3 Tyr-Gly-Gly-Phe-Leu-Arg-CH3 Arg-D-Leu-NHC2 H5], the “Minimum Lethal Dose” value in data set [1] amounted to 100 mg/kg.
Still for that read-out and setting: the figure for `CN[C@@H](Cc1ccc(O)cc1)C(=O)NCC(=O)NCC(=O)N[C@@H](Cc1ccccc1)C(=O)N[C@@H](CC(C)C)C(=O)N[C@@H](CCCNC(=N)N)C(=O)N(C)[C@@H](CCCNC(=N)N)C(=O)N[C@H](C)C(=O)O` [Example 30, CH3 Tyr-Gly-Gly-Phe-Leu-Arg-CH3 Arg-D-Ala-OH] is > 100 mg/kg; for `CN[C@@H](Cc1ccc(O)cc1)C(=O)NCC(=O)NCC(=O)N[C@@H](Cc1ccccc1)C(=O)N[C@@H](CC(C)C)C(=O)N[C@@H](CCCNC(=N)N)C(=O)N(C)[C@@H](CCCNC(=N)N)C(=O)N(C)[C@@H](C)C(=O)O` [Example 31, CH3 Tyr-Gly-Gly-Phe-Leu-Arg-CH3 Arg-CH3 Ala-OH] it is > 100 mg/kg; for `CC[C@H](C)[C@@H](C(=O)O)N(C)C(=O)[C@H](CCCNC(=N)N)N(C)C(=O)[C@H](CCCNC(=N)N)NC(=O)[C@H](CC(C)C)NC(=O)[C@H](Cc1ccccc1)NC(=O)CNC(=O)CNC(=O)[C@H](Cc1ccc(O)cc1)NC` [Example 36, CH3 Tyr--Gly--Gly--Phe--Leu--Arg--CH3 Arg--CH3 Ile--OH] it is > 100 mg/kg.
In data set [2], “H-Tyr-Gly-Gly-Phe-Leu-Arg-Arg-Ile-Arg-Pro-Lys-Leu-Lys-Trp-Asp-Asn-Gln-OH [dynorphin A (1-17)]” displayed a half-inhibitory concentration (IC50) of 17.4 nM.
